# Entries after “also recorded” stand apart in the source; their conditions may differ.
# Tests used:
# [1] = Cyclic voltammetry (CV) screening of oxidation potentials; assay type: physicochemical; conditions: for Oxidation Potential (anodic peak): glassy carbon working electrode, 0.2 M lithium perchlorate; for Oxidation potential relative to L-Trp (in words): cyclic voltammetry
# Experimental: The oxidation/reduction characteristics of the compounds were investigated. Several compounds, including L-Trp and derivatives, were evaluated for the protection of Trp oxidation in proteins using cyclic voltammetry (CV) and rank ordered based on their oxidation potentials (Table 2). Specifically, the candidate antioxidants were dissolved in deionized water and then added to a 0.2 M lithium perchlorate electrolyte solution. […] Solutions were scanned from −0.10 V to +1.50 V at a scan rate of either 100 or 500 mV/sec. The analytical cell was purged for four minutes with nitrogen before scanning of each antioxidant solution. The input was a linear scan of the potential of a working electrode, and the output was measurement of the resulting current. […] Redox reactions were characterized by sharp increases or decreases in current (peaks). The potential at which an oxidation reaction occurred was referred to as the anodic peak potential (or oxidation potential), and the potential at which a reduction occurred was referred to as is the cathodic peak (or reduction) potential.
# [2] = Photosensitivity screening: H2O2 formation by antioxidant candidates upon light exposure (Amplex Ultra Red Assay); assay type: physicochemical; conditions: for (H2O2 produced by Compound)/(H2O2 produced by L-Trp): 1 mM in 20 mM histidine acetate pH 5.5, four hours of light at 250 W/m^2; for H2O2 production upon light exposure compared to L-Trp (in words) / H2O2 produced in comparison to L-Trp (times more): 1 mM, 20 mM L-His-acetate pH 5.5, 4 h light; for H2O2 production upon light exposure compared to L-Trp (in words): 0.22 million lux hours
# Experimental: As a screening tool, antioxidant candidates were exposed to light for four hours at 250 W/m^2 and the resulting H2O2 formation was quantified by the Amplexassay. Specifically, antioxidants were prepared to 1 mM in 20 mM histidine acetate buffer at pH 5.5. The 1 mM antioxidant solutions were aliquoted into glass vials (2 mL/glass vial) and exposed to four hours of light at 250 W/m^2 in an Atlas SunTest CPS+ Xenon Test Instrument (Chicago, Ill.). Total UV dose was 90 watt-hours/square meter and total visible dose was 0.22 million lux hours over the 4-hour period. Control vials were wrapped in aluminum foil and treated similarly. The amount of hydrogen peroxide generated after exposure to light was measured using the Amplex® Ultra Red Assay (Invitrogen, Carlsbad, Calif.) following the manufacturer's recommended procedure. On addition of horseradish peroxidase (HRP), the dye reacted 1:1 stoichiometrically with H2O2, resulting in the production of fluorescent oxidation product resorufin. In this study, fluorescence readings were obtained using a Spectra Max M2 Micro-plate Reader (Molecular Devices, Sunnyvale, Calif.) with excitation and emission set at 560 nm and 590 nm, respectively. Final H2O2 concentrations were determined using a standard curve ranging from 0 μm to 20 μm. […]
# mAb1 [3] = test: mAb1 AAPH stress study; Fab/Fc oxidation by RP-HPLC; assay type: physicochemical, human; conditions: AAPH, 24 hours at 40° C.; antioxidants at 1 mM; label mAb1 = no excipient
# From the text: (§1) The fragments were reduced with DTT, and then separated and identified via Liquid Chromatography-Mass Spectrometry (LC-MS). […] Comparison of area integrated under the oxidized and native peaks was used to quantify HC Fab and Fc oxidation. […] By using the papain digest RP-HPLC method in the present study it was possible to investigate Trp residue oxidation by quantifying HC Fab oxidation, and Met residue oxidation by quantifying HC Fc oxidation.
# % Fab oxidation and % Fc oxidation were calculated as follows: […]
# Antioxidants were added at 1 mM. […] After buffer exchange, each solution was prepared for analysis by reverse-phase HPLC as described above.
# mAb1 [4] = test: mAb1 light stress study, 16 hours; Fab/Fc oxidation by RP-HPLC; assay type: physicochemical, human; conditions: 16 hours of light at 250 W/m^2, excipient 1 mM
# Experimental: as §1
# Antioxidants were added at 1 mM. Glass vials containing these formulations were exposed to 250 W/m^2 light in an Atlas SunTest CPS+ Xenon Test Instrument (Chicago, Ill.). Control vials were wrapped in aluminum foil and treated similarly. After light exposure, solutions were prepared for analysis by reverse-phase HPLC as described above.
# mAb1 [5] = test: mAb1 light stress, eight hours, with L-Trp and L-Met; Fab/Fc oxidation by papain digest RP-HPLC; assay type: physicochemical, human; conditions: 8 h light at 250 W/m^2
# Experimental: L-tryptophan (L-Trp), an antioxidant used in protein formulations, has been recently shown to be photosensitive (Igarashi et al., Anal Sci 23(8):943-8 (2007)) and to have the ability to produce H2O2 upon light exposure. […] Control vials were wrapped in aluminum foil and treated similarly. After light exposure, solutions were prepared for analysis by reverse-phase HPLC. […] Following incubation, 900 μL of the solution was combined with 100 μL of 1 M dithiothreitol (DTT) and incubated for another thirty minutes at 37° C. Samples were then run on an Agilent, Inc. 1100/1200 HPLC system (Santa Clara, Calif.) equipped with UV detection at 280 nm in conjunction with a Varian, Inc. Pursuit 3 μm, 2 mm ID×250 mm diphenyl column (Palo Alto, Calif.). Mobile Phase A was 0.1% TFA in water. Mobile Phase B was 0.1% TFA in acetonitrile. The mobile phase gradient increased linearly from 34% B at 0 minutes to 43% B at 50.0 minutes, then to 95% B at 50.1 minutes. The gradient remained at 95% B until 60.1 minutes, and then decreased linearly from 95% B to 34% B between 60.1 and 60.2 minutes. The gradient remained at 34% B until the end of the cycle at 80.2 minutes. The column temperature was 65° C., total flow rate was 0.2 mL/min, and injection volume of each sample was 6 μL. Chromatograms were then integrated for quantification of oxidation.
Oxidation Potential (anodic peak) [1],Oxidation potential relative to L-Trp (in words) [1],SMILES,(H2O2 produced by Compound)/(H2O2 produced by L-Trp) [2],H2O2 production upon light exposure compared to L-Trp (in words) [2],further results
0.410 V vs Ag/AgCl,,"Nc1ccc2[nH]cc(C[C@H](N)C(=O)O)c2c1 (racemic) [5-Amino-DL-Trp, 5-Amino-Tryptophan]",0.29,low levels of H2O2 production,
0.890 V vs Ag/AgCl,,"COc1ccc2[nH]cc(C[C@H](N)C(=O)O)c2c1 (racemic) [5-Methoxy-DL-Trp, 5-Methoxy-Tryptophan]",1.05,produced more H2O2,
1.055 V vs Ag/AgCl,higher oxidation potential than L-Trp,NC(Cc1c[nH]c2ccc([N+](=O)[O-])cc12)C(=O)O (racemic) [5-nitro-DL-tryptophan],,,
,,"Oc1cccc2[nH]ccc12 [4-Hydroxyindole, 4-Hydroxy Indole]",0.00,,
0.965 V vs Ag/AgCl,higher oxidation potential than L-Trp,"N[C@@H](Cc1c[nH]c2ccc(F)cc12)C(=O)O [5-Fluoro-L-Trp, 5-Fluoro-Tryptophan]",0.71,produced more H2O2,
0.565 V vs Ag/AgCl,,"N[C@@H](Cc1c[nH]c2ccc(O)cc12)C(=O)O [5-Hydroxy-L-Trp, 5-Hydroxy-Tryptophan]",0.09,,Fab (Trp residue) oxidation of mAb1 after AAPH incubation (mAb1 [3]): about 2%; Effect on light-induced Fab oxidation (in words) (mAb1 [4]): reducing Fab oxidation to near control levels; H2O2 production upon light exposure compared to L-Trp (in words) ([2]; listed as 5-hydroxy-L-tryptophan): about one tenth of the H2O2; also recorded: low levels of H2O2 production
,,"Nc1ccc(O)cc1C(=O)O [5-Hydroxyanthranilic Acid, 5-Hydroxy Anthranilic Acid]",0.44,half as much H2O2,
,,"O=C(O)c1cc(O)ccc1O [5-Hydroxysalicylic Acid, 5-Hydroxy Salicylic Acid]",0.84,,
,,"Oc1cccc2cc[nH]c12 [7-Hydroxyindole, 7-Hydroxy Indole]",−0.03,,Fab (Trp residue) oxidation of mAb1 after AAPH incubation (mAb1 [3]): about 2%; Effect on light-induced Fab oxidation (in words) (mAb1 [4]): reducing Fab oxidation to near control levels
,,"O=C(O)c1cc2cccc(O)c2[nH]1 [7-Hydroxyindole-2-Carboxylic Acid, 7-Hydroxy Indole-2-Carboxylic Acid]",0.15,,
,,Nc1ccccc1C(=O)O [Anthranilic Acid],2.50,twice as much H2O2,
1.040 V vs Ag/AgCl,higher oxidation potential than L-Trp,"Nc1ccccc1C(=O)CC(N)C(=O)O [L-Kynurenine, Kynurenine]",0.20,,H2O2 production upon light exposure compared to L-Trp (in words) ([2]; listed as L-kynurenine): did not produce much H2O2; H2O2 production upon light exposure compared to L-Trp (in words) ([2]; listed as kynurenine): about one fifth of the H2O2
,,"CSCC[C@H](N)C(=O)O [L-Met, L-methionine]",,,"Effect on Fab oxidation of mAb1 (in words) (mAb1 [5]; 10, 25, 50, 100 mM L-Met added to formulation containing 1 mM L-Trp): appeared to reduce Fab oxidation slightly; Effect on Fc oxidation of mAb1 (in words) (mAb1 [5]; L-Met 10, 25, 50, 100 mM added to 1 mM L-Trp, label mAb1 = No Excipient): reduced the amount of Fc oxidation"
1.015 V vs Ag/AgCl,higher oxidation potential than L-Trp,"NC(=O)[C@@H](N)Cc1c[nH]c2ccccc12 [L-Trpamide, Tryptophanamide]",0.43,,Fc oxidation under light stress compared to no excipient control (in words) (mAb1 [4]): more Fc oxidation; Fab oxidation increase over the control level (mAb1 Ref Mat) (mAb1 [4]; label mAb1 = No Excipient): 8 fold
0.875 V vs Ag/AgCl,,"CC(=O)N[C@@H](Cc1c[nH]c2ccccc12)C(=O)O [N-Acetyl-L-Trp, N-Acetyl-Tryptophan]",0.31,,
0.730 V vs Ag/AgCl,,COc1ccc2[nH]cc(CCNC(C)=O)c2c1 [N-acetyl-5-methoxytryptamine],0.28,less than a third of the H2O2,
,,Cc1ncc(CO)c(CO)c1O [Pyridoxine],5.16,,H2O2 produced in comparison to L-Trp (times more) [2]: 5 times
,,Cc1c(C)c2c(c(C)c1O)CCC(C)(C(=O)O)O2 (stereo not drawn) [Trolox],122.75,,H2O2 produced in comparison to L-Trp (times more) [2]: 123 times

SMILES,Oxidation Potential (anodic peak) [1],Oxidation potential relative to L-Trp (in words) [1],(H2O2 produced by Compound)/(H2O2 produced by L-Trp) [2],H2O2 production upon light exposure compared to L-Trp (in words) [2],further results
"O=C(O)Cc1c[nH]c2ccc(O)cc12 [5-Hydroxyindole-3-Acetic Acid, 5-Hydroxy Indole-3-Acetic Acid]",0.535 V vs Ag/AgCl,,0.11,low levels of H2O2 production,
O=C(O)Cc1c[nH]c2ccccc12 [Indole-3-Acetic Acid],0.948 V vs Ag/AgCl,higher oxidation potential than L-Trp,2.40,twice as much H2O2; also recorded: two times more; also recorded: produced more H2O2,
c1ccc2[nH]ccc2c1 [Indole],,significantly lower oxidation potential than L-Trp,0.95,behaved similarly to L-Trp,
NCCc1c[nH]c2ccccc12 [Tryptamine],1.010 V vs Ag/AgCl,higher oxidation potential than L-Trp,0.53,about half as much H2O2,H2O2 production upon light exposure compared to L-Trp (in words) ([2]; listed as tryptamine): two times less

# Reference: patent US10653779B2, “Formulations with reduced oxidation” (Genentech, Inc., priority 2013, dated 2020)
